Series [1] deals with Canidae. The note with it: chronic, oral, diet, M/F, Dog Other.
For series [2], the system named is Canidae. The note with it: chronic, oral, diet, Dog Other.
Series [3] concerns Oryctolagus sp.
Series [4] deals with Rattus norvegicus. The settings on record: subchronic, oral; for NOEL: Fischer 344.
Series [5] concerns Cavia porcellus. The note with it: acute; inhalation; Guinea Pig.
The subject of series [6] is Mus musculus.
The test system of series [7] is Oryctolagus sp. The note with it: dermal, New Zealand.
Series [8] has as its system Rattus norvegicus.
The test system of series [9] is Mus musculus. The note with it: uterotrophic; duration: 3 days; injection; intraperitoneal; Active.
The subject of series [10] is Bird. The note with it: oral, diet.
Series [11] concerns Mus musculus. The settings on record: repeat dose other; oral.
Series [12] concerns Mus musculus. The note with it: short-term, inhalation, M, immunological.
Series [13] deals with Homo sapiens. The note with it: clinical; duration: 1 days; inhalation; M/F; respiratory.
Series [14] relates to Oryctolagus sp. The settings on record: oral, gavage, New Zealand.
The test system of series [15] is Rattus norvegicus. This is another data set of the same source.
Series [16] concerns Rattus norvegicus. This is another data set of the same source.
Series [17] relates to Rattus norvegicus. The note with it: chronic; duration: 16 weeks; oral; diet; Kidney: Degeneration.
Series [18] deals with Rattus norvegicus. The note with it: Hershberger; duration: 10 days; oral; gavage; Sprague-Dawley; inactive + Negative + Negative + neither + negative.
Setting [19] is: duration: 1 years, kidney and liver toxicity.
[20] abbreviates: subchronic, inhalation, M, New Zealand White / Sprague-Dawley, testicular effects.
The mark [21] stands for this setting: subchronic, duration: 90 days, oral, diet, B6C3F1.
Setting [22] is: reproduction developmental, duration: 21 days.
Setting [23] is: reproduction developmental, duration: 10 days, oral, gavage, F, Crl:CD(SD).
The mark [24] stands for this setting: reproduction developmental, duration: 28 days, oral, diet.
Setting [25] is: subchronic, duration: 90 days, oral, diet, Sprague-Dawley.
Where [26] appears, read: reproduction developmental, duration: 6 days, inhalation, Crl: CFW(SW)Br, Charles River Laboratories, generation: F1.
[27] abbreviates: reproduction developmental, inhalation, M, CD1.
Where [28] appears, read: developmental, inhalation, M/F, developmental toxicity.
Where [29] appears, read: chronic, oral, F, liver and kidney toxicity.
The mark [30] stands for this setting: duration: 2 years, kidney and spleen pathology.
Setting [31] is: developmental, oral, M/F, Reduced body weight gain (maternal), increased resorption, reduced body weight (fetal), delayed ossification.
Setting [32] is: duration: 2 years, reduced body weight gain, increased liver and kidney weight, and rbc cholinesterase inhibition.

Values joined by “and” are separate entries in the source; they are usually repeats but may differ in a detail not shown here. Identical values can stand only once.

In series [1] (setting [19]), `Cc1cc(Cl)ccc1OCC(=O)O` [2-(4-Chloro-2-methylphenoxy)acetic acid] returned an LEL of 0.75 mg/kg-day. Further, the NOEL came to 0.15 mg/kg-day in series [1] (setting [19]) and 0.15 mg/kg-day in series [2] (duration: 52 weeks, Kidney: Effects + Liver: Effects).

Take `COCCO` [2-Methoxyethanol]: in series [3] (setting [20]), the LOAEL amounted to 311 mg/m3 and the NOAEL was found to be 93 mg/m3. Moreover, the NOEL in [4] (drinking water, F, Deaths + Clinical Observation: Tremors Diarrhea Emaciation Abnormal posture Pallor Tachypnea Comatose state + Body Weight Changes: decrease…) worked out at 70 mg/kg-day. Moreover, the NOEL in series [4] (drinking water, M/F, Deaths + Clinical Observation: Tremors Diarrhea Emaciation Abnormal posture Pallor Tachypnea Comatose state + Body Weight Changes: decrease…) is less than 114 mg/kg-day.

For the molecule `CC(C)(c1cc(Br)c(O)c(Br)c1)c1cc(Br)c(O)c(Br)c1` [3,3',5,5'-Tetrabromobisphenol A], the LC50 is greater than 50 mg/L in series [5]; greater than 50 mg/L in [6] (acute, inhalation, NMDI); greater than 28200 mg/m3 in series [8] (acute, inhalation); greater than 50 mg/L in series [8] (acute, inhalation, Wistar). In addition, the LOAEL is 3070 mg/kg-day in [6] (setting [21]); greater than 2500 mg/kg-day in [7] (setting [22]); greater than 2500 mg/kg-day in [8] (developmental, duration: 19 days, oral, gavage, Wistar); 5000 mg/kg-day in [8] (setting [23]); 6 mg/L in series [8] (reproduction developmental, duration: 14 days, inhalation); greater than 1000 mg/kg-day in series [8] (reproduction developmental, duration: 19 days, oral, gavage, F). For the same molecule, the LOAEL in series [8] (reproduction developmental, oral, gavage, Sprague-Dawley, generation: F0) was 1000 mg/kg-day; in series [8] (setting [25]), greater than 100 mg/kg-day. The NOAEL in series [6] (setting [21]) turned out to be 965 mg/kg-day; in [7] (setting [22]), 2500 mg/kg-day; in series [8] (developmental, duration: 19 days, oral, gavage), 1000 mg/kg-day; in series [8] (developmental, duration: 20 days, oral, Wistar) it was 2500 mg/kg-day; in [8] (setting [23]), 3000 mg/kg-day; in series [8] (reproduction developmental, duration: 20 days, oral, gavage, F, Sprague-Dawley), 1000 mg/kg-day. The NOAEL in [8] (setting [24]) is no less than 1000 ppm; in series [8] (setting [25]) it was greater than 100 mg/kg-day; in [8] (subchronic, duration: 90 days, oral, gavage, Sprague-Dawley) it was 1000 mg/kg-day. Moreover, the median lethal dose (LD50) in series [7] (acute) was greater than 2000 mg/kg; in [8] (acute, oral, gavage, Sprague-Dawley), greater than 5000 mg/kg. The molecule also displayed an LOAEC in [8] (setting [24]) greater than 1000 ppm. This molecule also showed an LEL in [9] of 20 mg/kg-day.

As for `Cc1cc(C(C)(C)c2ccc(O)c(C)c2)ccc1O` [3,3'-Dimethylbisphenol A], the NOEL in series [10] (short-term, duration: 1 month, M, Chicken, body weight) was 0.3%; in series [10] (subchronic, duration: 12 week, M/F, White leghorn chicken, mortality), 0.3%; in series [10] (subchronic, duration: 12 week, M, White leghorn chicken, body weight + mortality), 0.3%. The LOEL in series [10] (short-term, duration: 1 month, M, Chicken, mortality) is 0.3%; in [10] (subchronic, duration: 12 week, M, White leghorn chicken, body weight) it was 0.3%.

`c1ccccc1` [Benzene]: the LOAEL in series [6] (repeat dose other, inhalation, CD1) amounted to 31.9 mg/m3; in series [6] (setting [26]) it was 63.9 mg/m3; in series [6] (reproduction developmental, inhalation, F, CD1), 958 mg/m3; in series [6] (setting [27]), 958 mg/m3; in [11], 264 mg/kg-day; in series [12] (duration: 6 days, whole body, C57BL/6) it was 32.6 mg/m3. The same molecule came in with an LOAEL in [12] (duration: 20 days, C57Bl/6) of 31.9 mg/m3. Further, the NOAEL in series [6] (setting [26]) came to 31.9 mg/m3; in series [6] (reproduction developmental, duration: 6 days, inhalation, F, Crl: CFW(SW)Br, Charles River Laboratories), 63.9 mg/m3; in series [6] (setting [27]), 95.8 mg/m3; in [11] it was 26.4 mg/kg-day. This molecule registered an LC50 in [8] (acute, inhalation, Sprague-Dawley) of 43800 mg/m3. Besides, the NOEL in series [4] (duration: 13 weeks, gavage, M/F, Deaths + Body Weight Changes: decrease + Hematology: WBC decrease, Lympho decrease + Histopathology: Spleen-B-cell depletion Spleen-…) was less than 25 mg/kg-day.

Turning to `[B]` [Boron], the NOAEL in [13] is 0.8 mg/m3; in series [14] (developmental, duration: 13 days, M/F, developmental), 22 mg/kg-day.

Regarding `CCc1ccccc1` [Ethylbenzene], the NOAEL in series [3] (setting [28]) was determined as 434 mg/m3; in series [4] (duration: 90 days, gavage, M/F, Wistar, Clinical Observation: Salivation Discolored urine + Functional Observational Battery: Decreased landing foot-splay + Body Weight Changes: …), 75 mg/kg-day. Further, the LOAEL in series [15] (setting [29]) was found to be 408 mg/kg-day; in [15] (setting [28]) it was 4340 mg/m3; in series [16] (chronic, duration: 104 weeks, inhalation, M/F, Fischer 344, renal) it was 326 mg/m3. Moreover, in series [15] (setting [29]), the NOEL was 97.1 mg/kg-day and 136 mg/kg-day.

As to `ClC(Cl)(Cl)C(Cl)(Cl)Cl` [Hexachloroethane], the NOAEL in series [15] (subchronic, duration: 6 weeks, inhalation, M/F, Sprague-Dawley, neurotoxicity: tremors and ruffled pelt) turned out to be 465 mg/m3; in [17], 1 mg/kg-day; in [14] (short-term, duration: 12 days, M, hepatic), 100 mg/kg-day; in [16] (chronic, duration: 16 weeks, oral, diet, M/F, Fischer 344, hepatic) it was 1 mg/kg-day; in series [16] (reproduction developmental, duration: 10 days, inhalation, F, Sprague-Dawley, neurological) it was 465 mg/m3; in series [16] (subchronic, duration: 6 weeks, inhalation, M/F, Sprague-Dawley, neurological) it was 465 mg/m3. The NOEL in [4] (duration: 13 weeks, gavage, M/F, Deaths + Clinical Observation: Hyperactivity Convulsions + Body Weight Changes: decrease + Relative Organ Weight: Liver increase, Brain …) was less than 47 mg/kg-day.

In turn, `[Hg+2].[S-2]` [Mercury sulfide (HgS)] gave an NOAEL in [11] of 13.2 mg/kg-day.

On to `CNC(=O)ON=C(C)SC` [Methomyl], for which the NOEL in series [18] turned out to be 1 mg/kg-day; in [1] (setting [30]) it was 2.5 mg/kg-day; in [2] (duration: 24 months, Kidney: Lesions), 2.5 mg/kg-day. For the same molecule, in series [1] (setting [30]), the LEL came to 10 mg/kg-day.

Molecule `C#CCOS(=O)OC1CCCCC1Oc1ccc(C(C)(C)C)cc1` (configuration not stated) [Propargite] yielded an NOEL in series [1] (duration: 2 years, No adverse effects observed at the HDT) of 22.5 mg/kg-day. In series [3] (setting [31]), the LEL is 6 mg/kg-day and the NOEL is 2 mg/kg-day.

With `CCOP(=S)(OCC)SCSC(C)(C)C` [Terbufos], the NOAEL in [2] (duration: 6 months, Cholinesterase: Inhibition) was determined as 0.0025 mg/kg-day.

Take `COP(=O)(OC)O/C(=C/Cl)c1cc(Cl)c(Cl)cc1Cl` [Tetrachlorovinphos]: the LEL in series [1] (setting [32]) is 50 mg/kg-day. In addition, the NOEL in series [1] (setting [32]) came to 3.13 mg/kg-day; in series [2] (duration: 2 years, Kidney: Increased weight + Liver: Increased weight), 3.1 mg/kg-day.

In general, LOAEL refers to the lowest dose or exposure tested at which an adverse effect was seen. A word on the NOAEL: it is the highest tested level that showed no adverse finding. One may read the LD50 as the dose expected to kill half of the subjects tested. Higher therefore signals lower toxicity.

The values are drawn from EPA's ToxValDB 9.5.
